Results on 3 compounds are retold here after patent US20230266302A1, “SYNTHESIS AND USE OF N-BENZYL SULFONAMIDES” (THE UNIVERSITY OF TULSA, priority 2020, published 2023).

Common to all, as to type: cell-based
The test system of one test is NCI-H196 (lung cancer). Nature of the test: ATP level assay (CellTiter-Glo), percent of control. The following applies: two hour incubation; for activity at 100 µM: NCI-H196, 2 h, compound alone, control DMSO, read-out: POC (percent of control) NCI-H196. (In general: In ATP-based viability assays light output follows the ATP content of the culture.)
A further test deals with PC3 (prostate cancer). Described as above. The following applies: two hour incubation; for activity at 100 µM: 2 h, compound alone, control DMSO, read-out: POC (percent of control) PC3.
The subject of a further test is H293 (kidney cancer). The experiment in a line: Cytotoxicity testing, CellTiter-Blue assay (FIG. 9). The following applies: 100 μM, 24 hour compound incubation, result in words. How it is done: The cytotoxicity tests were carried out in the following manner. Living cells are known to convert resazurin to the fluorescent compound resorufin. Test systems which rely upon this reaction are commercially available. One such test is known at the Cell Titer Blue Cell Viability test assay from Promega. Cell cultures for each of the identified cancer lines were obtained from ATCC and maintained in Dulbecco's Modified Eagle Medium (DMEM) supplemented with 10% fetal bovine serum (FBS) and pen/strep. As known to those skilled in the art, DMEM typically includes the components identified below.
The test method provides for incubating the cell cultures at 37° C. Additionally, the cell cultures are kept under an atmosphere containing 5% CO2. After allowing for proliferation of the cells, the cells were distributed across a plurality of test cells containing from 100 μL DMEM plus 10% FBS and allowed to attach to the surface of the cells. Typically, the time for attachment will require about 12 hours to about 18 hours. Following attachment, the cells were treated with either a solvent control or the N-benzyl sulfonamide compound of interest dissolved in a suitable solvent such as but not limited to DMSO. Typically, about 18 hours to about 36 hours are required to determine the effect of the N-benzyl sulfonamide compound of interest on cell viability. Following treatment of the cells with the N-benzyl sulfonamide or control, the toxicity of the compound to the cells will be determined by addition of 10 μl of CellTiter-Blue reagent, i.e. resazurin. Typically, the resazurin is added between about 18 hours to about 36 hours after treating the cells with the N-benzyl sulfonamides or the control. The cells are allowed to consume and convert the resazurin to resorufin for about one to four hours. Subsequently, the fluorescence of […] is measured by excitation at 560 nm and recording the emission at 590 nm within an instrument configured to measure fluorescence intensity. Two commercially available systems are the BioTek Cytation 5 plate reader and the Promega Glomax Multi+detection system. […] The method for determining IC50 values is well known in the art and will not be discussed further. As known to those skilled in the art, IC50 is a quantitative measure that indicates how much of a particular inhibitory substance (e.g. drug) is needed to inhibit, in vitro, a given biological process or biological component by 50%. Therefore, each N-benzyl sulfonamide will be tested over a range of concentrations. Typically, the concentration ranges will be: 6.25 μM, 12.5 μM, 25 μM, 50 μM, and 100 μM. The control in this method is normally dimethyl […] (DMSO) or other solvent suitable for dissolving the compounds to be tested. FIG. 8 depicts the % cell viability for the indicated compounds depicted in FIG. 7.
The Table of FIG. 9 provides the results of cytotoxicity testing a 100 μM concentration of compounds 2, 5-9, 11-12, 14, 16, 18-22 of FIG. 7 against the indicated cancer cell lines using CellTiter-Blue assay with 24 hour compound incubation time. FIG. 9 reflects the percent reduction in cell viability resulting from the treatment of the indicated cancer cell lines with the indicated compounds. As indicated by the boxed values in FIG. 9, compounds 2, 5, and 6 would be considered effective against H293. […] The Table of FIG. 10 provides a comparison of the IC50 values of select compounds from FIG. 7 to the IC50 values of two known anti-cancer sulfonamides, ABT-751 and Indisulam. As indicated by FIG. 10, the identified compounds performed remarkably better than the known anti-cancer agents. Thus, the identified compounds are expected to have greater anti-cancer potency.
Background: The colour change of resazurin is a common sign of viable cells or microbes.

Setting [1] is: compound 100 uM + 2DG (about 10-20 mM).
The mark [2] stands for this setting: compound 100 uM + rotenone (approximately 1.25 μM).

On to `Cc1cccc2c(CNS(=O)(=O)c3ccccc3)c[nH]c12` [Compound 6, N-[(7-methyl-1H-indol-3-yl)methyl]benzenesulfonamide], for which the activity at 100 µM amounted to 64.3% in the test with NCI-H196 (lung cancer) and 38.3% with PC3 (prostate cancer). For the same compound, the results for the “POC (percent of control) NCI-H196” value in the test on NCI-H196 (lung cancer) (setting [1]) and in the test with NCI-H196 (lung cancer) (setting [2]) were 34.3% of control and 23.7% of control, respectively. Moreover, the “POC (percent of control) PC3” value with PC3 (prostate cancer) (setting [1]) is on record as 35.9% of control; in the test with PC3 (prostate cancer) (setting [2]) it was 54.3% of control. Besides, the “percent reduction in cell viability, H293” value (“percent reduction” for short) in the test on H293 (kidney cancer) is on record as “effective”.
For `O=S(=O)(NCc1c[nH]c2ccccc12)c1ccc(Cl)cc1` [Compound 2, N-[(1H-indol-3-yl)methyl]-4-chlorobenzenesulfonamide], the activity at 100 µM with NCI-H196 (lung cancer) was 50.9%; in the test on PC3 (prostate cancer), 30.9%. The “POC (percent of control) NCI-H196” value in the test with NCI-H196 (lung cancer) (setting [1]) is 22.9% of control; in the test with NCI-H196 (lung cancer) (setting [2]), 23.5% of control. Also, the “POC (percent of control) PC3” value is listed as 16.7% of control in the test with PC3 (prostate cancer) (setting [1]) and 36.6% of control in the test with PC3 (prostate cancer) (setting [2]). Besides, in the test on H293 (kidney cancer), the “percent reduction” value is listed as “effective”.
In the case of `Cc1ccc(S(=O)(=O)NCc2c[nH]c3cccc(Br)c23)cc1` [Compound 5, N-[(4-bromo-1H-indol-3-yl)methyl]-4-methylbenzenesulfonamide], the activity at 100 µM with NCI-H196 (lung cancer) was found to be 47.7%; in the test on PC3 (prostate cancer), 68.3%. Further, the “POC (percent of control) NCI-H196” value in the test on NCI-H196 (lung cancer) (setting [1]) was 4.2% of control; in the test with NCI-H196 (lung cancer) (setting [2]), 9.1% of control. Besides, the “POC (percent of control) PC3” value with PC3 (prostate cancer) (setting [1]) was 4.8% of control; in the test on PC3 (prostate cancer) (setting [2]), 18.3% of control. Besides, the “percent reduction” value in the test with H293 (kidney cancer) is “effective”.
